US20230058733A1, “OGA INHIBITOR COMPOUNDS” (JANSSEN PHARMACEUTICA NV, priority 2019, published 2023)

How the values were obtained:
[1] = molecular target: T1, hOGA (Homo sapiens, UniProt O60502); experiment: OGA cellular assay (ICC detection of O-GlcNAcylated proteins in HEK293 cells inducible for P301L mutant human Tau); type: cell-based; conditions: for EC50: HEK293 cells inducible for P301L mutant human Tau (2N4R), 6 hours incubation, O-GlcNAcylation readout at 488 nm, read-out: Cellular hOGA, pEC50 (converted); for Emax: HEK293 cells inducible for P301L mutant human Tau, maximum defined by Thiamet G at 200 uM
T1 construct: HEK293 cells inducible for P301L mutant human Tau (isoform 2N4R) were established at Janssen; endogenous in cells; host or cells: HEK293 cells inducible for P301L mutant human Tau (2N4R)
T1 sequence (O60502 1-916): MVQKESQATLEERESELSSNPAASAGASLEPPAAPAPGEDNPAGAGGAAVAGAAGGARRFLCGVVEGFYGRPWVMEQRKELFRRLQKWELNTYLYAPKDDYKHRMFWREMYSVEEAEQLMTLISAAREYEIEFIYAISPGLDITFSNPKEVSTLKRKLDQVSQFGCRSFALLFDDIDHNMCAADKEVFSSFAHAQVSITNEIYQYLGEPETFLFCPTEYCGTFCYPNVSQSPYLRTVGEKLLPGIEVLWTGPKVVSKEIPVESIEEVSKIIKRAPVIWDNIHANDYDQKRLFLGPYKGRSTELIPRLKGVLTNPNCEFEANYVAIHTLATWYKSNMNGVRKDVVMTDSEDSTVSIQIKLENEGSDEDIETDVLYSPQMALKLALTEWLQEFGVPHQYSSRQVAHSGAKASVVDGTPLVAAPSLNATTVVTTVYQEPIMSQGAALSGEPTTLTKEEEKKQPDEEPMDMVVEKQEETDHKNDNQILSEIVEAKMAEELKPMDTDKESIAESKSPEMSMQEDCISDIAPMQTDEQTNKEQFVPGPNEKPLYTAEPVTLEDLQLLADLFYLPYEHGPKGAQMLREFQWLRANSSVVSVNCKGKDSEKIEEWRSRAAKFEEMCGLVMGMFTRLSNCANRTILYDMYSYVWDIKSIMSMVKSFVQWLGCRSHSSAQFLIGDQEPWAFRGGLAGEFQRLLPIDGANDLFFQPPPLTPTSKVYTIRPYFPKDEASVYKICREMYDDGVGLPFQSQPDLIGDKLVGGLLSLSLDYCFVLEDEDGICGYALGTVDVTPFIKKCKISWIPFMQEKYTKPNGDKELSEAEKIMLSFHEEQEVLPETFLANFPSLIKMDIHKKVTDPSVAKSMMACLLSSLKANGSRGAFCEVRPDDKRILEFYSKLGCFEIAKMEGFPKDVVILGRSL
Experimental: HEK293 cells inducible for P301L mutant human Tau (isoform 2N4R) were established at Janssen. Thiamet-G was used for both plate validation (high control) and as reference compound (reference EC50 assay validation). OGA inhibition is evaluated through the immunocytochemical (ICC) detection of O-GlcNAcylated proteins by the use of a monoclonal antibody (CTD110.6; Cell Signaling, #9875) detecting 0-GlcNAcylated residues as previously described (Dorfmueller et al. 2010 Chemistry & biology, 17:1250). Inhibition of OGA will result in an increase of O-GlcNAcylated protein levels resulting in an increased signal in the experiment. Cell nuclei are stained with Hoechst to give a cell culture quality control and a rough estimate of immediate compounds toxicity, if any. ICC pictures are imaged with a Perkin Elmer Opera Phenix plate microscope and quantified with the provided software Perkin Elmer Harmony 4.1.
Cells were propagated in DMEM high Glucose (Sigma, #D5796) following standard procedures. 2 days before the cell assay cells are split, counted and seeded in Poly-D-Lysine (PDL) coated 96-wells (Greiner, #655946) plate at a cell density of 12,000 cells per cm^2 (4,000 cells per well) in 100 μl of Assay Medium (Low Glucose medium is used to reduce basal levels of GlcNAcylation) (Park et al. 2014 The Journal of biological chemistry 289:13519). At the day of compound test medium from assay plates was removed and replenished with 90[d of fresh Assay Medium. 10 μl of compounds at a 10 fold final concentration were added to the wells. Plates were centrifuged shortly before incubation in the cell incubator for 6 hours. DMSO concentration was set to 0.2%. Medium is discarded by applying vacuum. For staining of cells medium was removed and cells washed once with 100 μl D-PBS (Sigma, #D8537). From next step onwards unless other stated assay volume was always 50 μl and incubation was performed without agitation and at room temperature. Cells were fixed in 50 μl of a 4% paraformaldehyde (PFA, Alpha aesar, #043368) PBS solution for 15 minutes at room temperature. […] Before analysis samples were washed 2 times manually for 5 minutes in ICC base buffer.
Imaging is performed using Perkin Elmer Phenix Opera using a water 20× objective and recording 9 fields per well. Intensity readout at 488 nm is used as a measure of O-GlcNAcylation level of total proteins in wells. To assess potential toxicity of compounds nuclei were counted using the Hoechst staining. IC50-values are calculated using parametric non-linear regression model fitting. As a maximum inhibition Thiamet G at a 200 uM concentration is present on each plate. In addition, a concentration response of Thiamet G is calculated on each plate.

[2] = molecular target: T2, recombinant human Meningioma Expressed Antigen 5 (MGEA5), also referred to as O-GlcNAcase (OGA) (Homo sapiens, UniProt O60502); experiment: OGA biochemical assay (inhibition of FM-GlcNAc hydrolysis, fluorescence); conditions: full length OGA 2 nM, FM-GlcNAc 100 uM; for IC50: pH 7.2, 6 h at room temperature, read-out: Enzymatic hOGA, pIC50 (converted); for Emax: relative to high and low controls, read-out: Enzymatic Emax (%)
T2 construct: Full length OGA enzyme was purchased at OriGene (cat #TP322411); purchased OriGene TP322411
T2 sequence (O60502 1-916): T1 sequence (O60502 1-916)
Text: The assay is based on the inhibition of the hydrolysis of fluorescein mono-β-D-N-Acetyl-Glucosamine (FM-GlcNAc) (Mariappa et al. 2015, Biochem J 470:255) by the recombinant human Meningioma Expressed Antigen 5 (MGEA5), also referred to as O-GlcNAcase (OGA). The hydrolysis FM-GlcNAc (Marker Gene technologies, cat #M1485) results in the formation of […] and fluorescein. The fluorescence of the latter can be measured at excitation wavelength 485 nm and emission wavelength 538 nm. An increase in enzyme activity results in an increase in fluorescence signal. Full length OGA enzyme was purchased at OriGene (cat #TP322411). The enzyme was stored in 25 mM Tris.HCl, pH 7.3, 100 mM glycine, 10% glycerol at −20° C. Thiamet G and GlcNAcStatin were tested as reference compounds (Yuzwa et al. 2008 Nature Chemical Biology 4:483; Yuzwa et al. 2012 Nature Chemical Biology 8:393). The assay was performed in 200 mM Citrate/phosphate buffer supplemented with 0.005% Tween-20. 35.6 g Na2HPO4 2 H2O (Sigma, #C0759) were dissolved in 1 L water to obtain a 200 mM solution. 19.2 g citric acid (Merck, #1.06580) was dissolved in 1 L water to obtain a 100 mM solution. pH of the sodiumphosphate solution was adjusted with the citric acid solution to 7.2. The buffer to stop the reaction consists of a 500 mM Carbonate buffer, pH 11.0. 734 mg FM-GlcNAc were dissolved in 5.48 mL DMSO to obtain a 250 mM solution and was stored at −20° C. OGA was used at a 2 nM concentration and FM-GlcNAc at a 100 uM final concentration. Dilutions were prepared in assay buffer.
50 nl of a compound dissolved in DMSO was dispensed on Black Proxiplate TM 384 Plus Assay plates (Perkin Elmer, #6008269) and 3 μl fl-OGA enzyme mix added subsequently. Plates were pre-incubated for 60 min at room temperature and then 2 μl FM-GlcNAc substrate mix added. […] Plates were briefly centrifuged for 1 min at 1000 rpm and incubate at room temperature for 6 h. To stop the reaction 5 μl STOP buffer were added and plates centrifuge again 1 min at 1000 rpm. Fluorescence was quantified in the Thermo Scientific Fluoroskan Ascent or the PerkinElmer EnVision with excitation wavelength 485 nm and emission wavelength 538 nm.
For analysis a best-fit curve is fitted by a minimum sum of squares method. From this an IC50 value and Hill coefficient was obtained. High control (no inhibitor) and low control (saturating concentrations of standard inhibitor) were used to define the minimum and maximum values.

Row | Compound | EC50 [1] [µM] | Emax [1] [%] | IC50 [2] [µM] | Emax [2] [%]
1 | Cc1cc(OC(F)(F)F)cc(Cl)c1Nc1nncc2c1ccn2CC(=O)N(C)C [Co. No. 3] | 0.0158 | 108 | 0.00631 | 101
2 | Cc1cc(C(F)(F)F)cc(C)c1Nc1nncc2c1ccn2CC(=O)N(C)C [Co. No. 1] | 0.024 | 68 | 0.0151 | 101
3 | Cc1cc(C)c(Nc2nncc3c2ccn3CC(=O)N(C)C)c(C)c1 [Co. No. 5] | 0.0214 | 92 | 0.00427 | 99
4 | Cc1ccnc(C(C)C)c1Nc1nncc2c1ccn2CC(=O)N(C)C [Co. No. 2] | 0.138 | 138 | 0.0214 | 98
5 | Cc1cc(Cl)cc(C(F)(F)F)c1Nc1nncc2c1ccn2CC(=O)N(C)C [Co. No. 4] | 0.0741 | 63 | 0.0191 | 100
